The values that follow come from publication PMC5384750 (PLoS ONE, 2017).

pIC50: −log10 of the molar value.

The target of data set [1] is T1, recombinant IDE (rIDE) (Rattus norvegicus, UniProt P35559).
T1 construct: purchased Calbiochem
As to the kind of experiment: In vitro degradation by recombinant IDE (extent, kinetics, cleavage sites). Format: biochemical. The following applies: 30 min, 37°C. How it is done:
(A) 10 ng of sp6BY or insulin-FITC were incubated with indicated amounts of rIDE for 30 min at 37°C. Remaining amounts of sp6BY and insulin-FITC were detected by measurement of fluorescence excitation. (B) Results of four independently performed experiments. Values represent the arithmetic mean ± SD. (C) Increasing concentrations of sp6BY were incubated with rIDE for 10 min at 37°C. The velocities were calculated from the degradation of sp6BY and normalized for the amount of rIDE. Data points represent values from three independent experiments in a double-reciprocal Lineweaver-Burk plot.
Fig 8 Generation of stable p6 mutants. […] Reactions were stopped by adjusting the samples to 0.3% (w/v) […] and subsequently analyzed by mass spectrometry. Arrows above the primary sequence represent the detected cleavage sites, and initial and secondary cleavage sites are indicated as big or small arrows, respectively. […] (C) 10 ng of sp6BY were incubated with 250 μg/ml sp6 wt, 2xPTAPPA, 3xPTAPPA or only buffer and 5 μg S10 for 30 min at 37°C. sp6BY was detected by fluorescence emission and quantified. […]
Typically 5 μg S10 were incubated with inhibitor or buffer and 20–100 ng sp6 at 37°C for 30 min. […] Remaining p6 was detected by Western blotting using an anti-p6 rabbit antiserum. […] In some experiments the amount of p6 was densitometrically quantified with the software AIDA (Raytest). […]

Data set [2] can be described thus: In vitro degradation in cytosolic S10 HeLa cell extract. The following applies: human, cytosolic S10 HeLa cell extract; 100 ng sp6, 5 μg S10 extract from HeLa cells, 37°C; Western blot (anti-p6), quantified; estimated from exponential decay; mean of 4 independent experiments. The format is in vitro ADME. On the procedure: (§1) For generation of S10, confluent dishes with HeLa cells were extensively washed and subsequently lysed with a modified S10 buffer (250 mM sucrose, 80 mM KCl, 10 mM Tris pH 7.6, 0.1% (v/v) Triton X-100 [91]). Debris and nuclei were removed by centrifugation at 10.000 × g for 10 min. Protein content was determined by BCA-Assay (Pierce) and aliquots stored at -80°C.
(§2) Typically 5 μg S10 were incubated with inhibitor or buffer and 20–100 ng sp6 at 37°C for 30 min. Reactions were stopped by addition of sample buffer and incubation at 95°C for 5 min. Remaining p6 was detected by Western blotting using an anti-p6 rabbit antiserum. Alternatively, 10 ng of BODIPY FL-labeled sp6 (sp6BY) were used as substrate and detected directly in the polyacrylamide gel by fluorescence scanning. In some experiments the amount of p6 was densitometrically quantified with the software AIDA (Raytest). For the in vitro degradation of amyloid-β 10 ng of Aβ-FITC (abcam) were used analogously to sp6BY. For the in vitro degradation of viral p6, VLPs were pelleted and lysed in IDE enzyme buffer (150 mM NaCl, 50 mM Tris pH 7.4, 0.5% (v/v) Triton X-100). The p6 content was estimated by Western blotting using a dilution series of sp6 with known concentrations. Equivalents of 15 ng were used for digestion experiments and subsequently detected by Western blotting. Experiments carried out with recombinant IDE (Calbiochem) were performed in IDE enzyme buffer. Recombinant FITC-labeled insulin was purchased from Sigma.

The target of data set [3] is T2, insulin-degrading enzyme (IDE) (Homo sapiens, UniProt P14735).
T2 construct: endogenous in cells; host or cells: HeLa cells (cytosolic S10 extract)
In words: Inhibition of / competition with sp6 or sp6BY degradation in S10 extract. The conditions noted are these: 10 ng sp6BY, 5 μg S10 extract, 30 min, 37°C; fluorescence; mean of at least three independent experiments. Format: biochemical. How it is done:
as §1
as §2, with “Reactions” for “Typically 5 μg S10 were incubated with inhibitor or buffer and 20–100 ng sp6 at 37°C for 30 min. Reactions”, “buffer.” for “buffer. Recombinant FITC-labeled insulin was purchased from Sigma.”
Bestatin, Chymostatin, E-64, Leupeptin, Pepstatin, Phosphoramidon, Pefabloc SC, EDTA, Aprotinin, Antipain were purchased from Roche as part of a protease inhibitors set and used at the following concentrations: 74 μM Antipain; 130 μM Bestatin; 100 μM Chymostatin; 28 μM E-64; 1 μM Leupeptin; 1 μM Pepstatin; 600 nM Phosphoramidon; 4 mM Pefabloc SC; 1.3 mM EDTA; […]. […] (Phoenix Pharmaceuticals and Tocris), TPEN (Calbiochem), and NEM (Roche) were purchased from companies indicated.

Data set [4] has as its target T2, insulin-degrading enzyme (IDE). In words: Inhibition of Aβ-FITC degradation in S10 extract. Format: biochemical. The following applies: 10 ng FITC-labeled Aβ 1–40, 5 μg S10, 45 min, 37°C; fluorescence; four independent experiments. How it is done:
as §2, with “Typically 5 μg S10 were incubated with inhibitor or buffer and 20–100 ng sp6 at 37°C for 30 min.” left out
Supplementary file pone.0174254.s003.tif: S3 Fig p6 competes with the in vitro degradation of Aβ. […] Aβ-FITC was detected by measurement of fluorescence excitation. The band marked with * represents Aβ-oligomers and has been described earlier. (B) Band intensities were quantified for four independent experiments and values represent the arithmetic mean ± SD. […]

For data set [5], the system named is IDE (S10 extract or rIDE). Format: in vitro ADME. The following applies: 20 ng sp6 or 30 ng vp6 with 5 μg S10 extract or 2 ng rIDE, up to 60 min; Western blot densitometry; at least 3 independent experiments per setting; value depends on the experimental setting. How it is done:
Fig 9 Multiplication of PTAPPA-motifs stabilizes p6. 20 ng of sp6 or 30 ng of vp6 were incubated either with 5 μg S10 extract (A/B/C) or 2 ng of rIDE (D) for up to 60 min. Degradation efficiency was quantified via densitometric analyses of Western blots. Values represent the arithmetic mean ± SD of at least 3 independent experiments for each setting.
as §2, with “Experiments carried out with recombinant IDE (Calbiochem) were performed in IDE enzyme buffer. Recombinant FITC-labeled insulin was purchased from Sigma.” left out
(Immunoblotting shows a protein as a band on a membrane.)

T2 sequence (P14735 whole entry): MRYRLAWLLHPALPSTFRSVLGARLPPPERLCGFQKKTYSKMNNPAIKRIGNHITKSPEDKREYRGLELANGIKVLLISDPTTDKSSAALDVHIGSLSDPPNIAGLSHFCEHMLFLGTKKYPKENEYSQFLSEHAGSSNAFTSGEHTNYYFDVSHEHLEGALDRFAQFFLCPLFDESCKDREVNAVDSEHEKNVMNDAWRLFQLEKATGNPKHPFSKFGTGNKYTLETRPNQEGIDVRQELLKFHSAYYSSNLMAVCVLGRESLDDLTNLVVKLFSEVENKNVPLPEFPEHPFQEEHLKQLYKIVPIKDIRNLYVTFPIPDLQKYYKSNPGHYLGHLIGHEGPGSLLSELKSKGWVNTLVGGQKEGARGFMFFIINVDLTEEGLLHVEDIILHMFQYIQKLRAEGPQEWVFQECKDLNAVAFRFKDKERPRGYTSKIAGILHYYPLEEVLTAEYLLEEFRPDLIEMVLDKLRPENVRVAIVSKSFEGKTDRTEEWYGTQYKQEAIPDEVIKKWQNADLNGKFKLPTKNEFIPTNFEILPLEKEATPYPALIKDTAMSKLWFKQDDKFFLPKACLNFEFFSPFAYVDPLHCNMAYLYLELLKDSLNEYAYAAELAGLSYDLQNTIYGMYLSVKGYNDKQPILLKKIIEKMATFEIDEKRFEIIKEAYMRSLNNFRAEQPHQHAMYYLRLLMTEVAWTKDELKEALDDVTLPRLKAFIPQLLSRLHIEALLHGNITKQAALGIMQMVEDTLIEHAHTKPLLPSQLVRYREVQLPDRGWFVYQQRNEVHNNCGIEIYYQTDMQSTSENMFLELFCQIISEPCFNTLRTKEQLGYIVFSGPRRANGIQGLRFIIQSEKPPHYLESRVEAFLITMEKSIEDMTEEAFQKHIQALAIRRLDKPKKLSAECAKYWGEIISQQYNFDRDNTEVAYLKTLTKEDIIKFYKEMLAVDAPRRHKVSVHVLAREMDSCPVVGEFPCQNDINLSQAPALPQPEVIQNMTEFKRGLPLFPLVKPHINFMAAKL
T1 sequence (P35559 whole entry): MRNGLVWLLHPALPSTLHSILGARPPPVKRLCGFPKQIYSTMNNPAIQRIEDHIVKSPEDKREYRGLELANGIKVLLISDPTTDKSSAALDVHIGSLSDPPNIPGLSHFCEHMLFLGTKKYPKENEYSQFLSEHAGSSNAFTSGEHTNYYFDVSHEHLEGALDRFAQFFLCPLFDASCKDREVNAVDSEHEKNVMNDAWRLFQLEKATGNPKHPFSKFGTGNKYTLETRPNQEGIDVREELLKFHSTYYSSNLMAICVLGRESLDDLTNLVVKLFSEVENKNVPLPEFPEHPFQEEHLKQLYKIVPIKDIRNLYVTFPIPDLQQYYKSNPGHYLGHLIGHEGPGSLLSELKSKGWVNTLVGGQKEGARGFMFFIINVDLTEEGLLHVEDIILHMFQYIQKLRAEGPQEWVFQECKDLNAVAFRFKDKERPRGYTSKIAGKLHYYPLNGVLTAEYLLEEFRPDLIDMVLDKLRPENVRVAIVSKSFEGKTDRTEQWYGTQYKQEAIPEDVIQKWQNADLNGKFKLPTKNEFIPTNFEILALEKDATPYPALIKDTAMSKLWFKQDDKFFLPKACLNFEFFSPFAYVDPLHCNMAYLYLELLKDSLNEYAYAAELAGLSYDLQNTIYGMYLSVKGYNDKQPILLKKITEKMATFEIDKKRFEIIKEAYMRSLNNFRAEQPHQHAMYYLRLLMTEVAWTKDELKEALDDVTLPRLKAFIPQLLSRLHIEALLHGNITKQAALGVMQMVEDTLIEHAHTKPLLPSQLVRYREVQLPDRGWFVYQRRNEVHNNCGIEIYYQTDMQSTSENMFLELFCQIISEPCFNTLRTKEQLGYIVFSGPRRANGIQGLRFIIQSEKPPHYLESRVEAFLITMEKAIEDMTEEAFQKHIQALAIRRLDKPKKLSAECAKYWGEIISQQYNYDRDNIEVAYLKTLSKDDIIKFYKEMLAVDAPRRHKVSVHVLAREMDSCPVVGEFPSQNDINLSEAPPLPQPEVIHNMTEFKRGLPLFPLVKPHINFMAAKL

Turning to “insulin-FITC: recombinant FITC-labeled insulin (Sigma)”, the “amount of rIDE required to cleave with the same efficiency, relative to sp6” value in data set [1] (10 ng insulin-FITC, fluorescence, four independent experiments) came out at 100 fold.

For orientation: half-life means the time in which the quantity being followed falls by half. As usually defined, the pIC50 is −log10 of the IC50, conventionally taken in molar units. On to `CC[C@H](C)[C@H](NC(=O)[C@@H]1CCCN1C(=O)[C@H](CCC(=O)O)NC(=O)[C@H](CCC(N)=O)NC(=O)[C@H](CCCCN)NC(=O)[C@H](CCC(N)=O)NC(=O)[C@H](CO)NC(=O)[C@@H]1CCCN1C(=O)[C@@H](NC(=O)[C@@H](NC(=O)[C@@H](NC(=O)[C@H](CCC(=O)O)NC(=O)[C@H](CCC(=O)O)NC(=O)CNC(=O)[C@H](Cc1ccccc1)NC(=O)[C@H](CCCNC(=N)N)NC(=O)[C@H](Cc1ccccc1)NC(=O)[C@H](CO)NC(=O)[C@H](CCC(=O)O)NC(=O)[C@H](CCC(=O)O)NC(=O)[C@@H]1CCCN1C(=O)[C@@H]1CCCN1C(=O)[C@H](C)NC(=O)[C@@H](NC(=O)[C@@H]1CCCN1C(=O)[C@H](CCC(=O)O)NC(=O)[C@@H]1CCCN1C(=O)[C@H](CCCNC(=N)N)NC(=O)[C@H](CO)NC(=O)[C@H](CCC(N)=O)NC(=O)[C@@H](N)CC(C)C)[C@@H](C)O)[C@@H](C)O)[C@@H](C)O)[C@@H](C)O)C(=O)N[C@@H](CC(=O)O)C(=O)N[C@@H](CCCCN)C(=O)N[C@@H](CCC(=O)O)C(=O)N[C@@H](CC(C)C)C(=O)N[C@@H](Cc1ccc(O)cc1)C(=O)N1CCC[C@H]1C(=O)N[C@@H](CC(C)C)C(=O)N[C@@H](C)C(=O)N[C@@H](CO)C(=O)N[C@@H](CC(C)C)C(=O)N[C@@H](CCCNC(=N)N)C(=O)N[C@@H](CO)C(=O)N[C@@H](CC(C)C)C(=O)N[C@@H](Cc1ccccc1)C(=O)NCC(=O)N[C@@H](CO)C(=O)N[C@@H](CC(=O)O)C(=O)N1CCC[C@H]1C(=O)N[C@@H](CO)C(=O)N[C@@H](CO)C(=O)N[C@@H](CCC(N)=O)C(=O)O` [sp6], for which the “degradation by recombinant IDE” value in data set [1] (10 ng rIDE, IDE enzyme buffer, 10 ng sp6BY (fluorescence) or VLP/virion lysate (Western blot)) is reported as “degraded by recombinant IDE”. In data set [2], the half-life is around 10 min. The results for the pIC50 in data set [3] and in data set [4] were around 4.52 and 4.86, respectively.

For `CC[C@H](C)[C@H](NC(=O)[C@@H]1CCCN1C(=O)[C@H](CCC(=O)O)NC(=O)[C@H](CCC(N)=O)NC(=O)[C@H](CCCCN)NC(=O)[C@H](CCC(N)=O)NC(=O)[C@H](CO)NC(=O)[C@@H]1CCCN1C(=O)[C@@H](NC(=O)[C@@H](NC(=O)[C@@H](NC(=O)[C@H](CCC(=O)O)NC(=O)[C@H](CCC(=O)O)NC(=O)CNC(=O)[C@H](Cc1ccccc1)NC(=O)[C@H](CCCNC(=N)N)NC(=O)[C@H](Cc1ccccc1)NC(=O)[C@H](CO)NC(=O)[C@H](CCC(=O)O)NC(=O)[C@H](C)NC(=O)[C@@H]1CCCN1C(=O)[C@@H]1CCCN1C(=O)[C@H](C)NC(=O)[C@@H](NC(=O)[C@@H]1CCCN1C(=O)[C@H](C)NC(=O)[C@@H]1CCCN1C(=O)[C@@H]1CCCN1C(=O)[C@H](C)NC(=O)[C@@H](NC(=O)[C@@H]1CCCN1C(=O)[C@H](CCC(=O)O)NC(=O)[C@@H]1CCCN1C(=O)[C@H](CCCNC(=N)N)NC(=O)[C@H](CO)NC(=O)[C@H](CCC(N)=O)NC(=O)[C@@H](N)CC(C)C)[C@@H](C)O)[C@@H](C)O)[C@@H](C)O)[C@@H](C)O)[C@@H](C)O)C(=O)N[C@@H](CC(=O)O)C(=O)N[C@@H](CCCCN)C(=O)N[C@@H](CCC(=O)O)C(=O)N[C@@H](CC(C)C)C(=O)N[C@@H](Cc1ccc(O)cc1)C(=O)N1CCC[C@H]1C(=O)N[C@@H](CC(C)C)C(=O)N[C@@H](C)C(=O)N[C@@H](CO)C(=O)N[C@@H](CC(C)C)C(=O)N[C@@H](CCCNC(=N)N)C(=O)N[C@@H](CO)C(=O)N[C@@H](CC(C)C)C(=O)N[C@@H](Cc1ccccc1)C(=O)NCC(=O)N[C@@H](CO)C(=O)N[C@@H](CC(=O)O)C(=O)N1CCC[C@H]1C(=O)N[C@@H](CO)C(=O)N[C@@H](CO)C(=O)N[C@@H](CCC(N)=O)C(=O)O` [2x], the “half-life in in vitro degradation assays” value in data set [5] is listed as “up to 30 min”.
